Assay results taken from the NIST ThermoML archive (doi:10.1007/s10765-009-0593-3).
Numbers after ± are expanded uncertainties.

Conditions: 101.33 kPa, Liquid; for speed of sound: Pulse-echo method

Structure (SMILES) | mass density (288.15 K) | speed of sound (288.15 K) | mass density (293.15 K) | speed of sound (293.15 K) | mass density (298.15 K) | speed of sound (298.15 K) | mass density (303.15 K) | speed of sound (303.15 K) | mass density (308.15 K) | speed of sound (308.15 K)
CCCCNCCCC [dibutylamine] | 766.115 ± 0.53 kg/m3 | 1289.2 ± 0.83 m/s | 762.022 ± 0.53 kg/m3 | 1269.5 ± 0.82 m/s | 757.784 ± 0.54 kg/m3 | 1246.7 ± 0.81 m/s | 752.284 ± 0.55 kg/m3 | 1226.7 ± 0.81 m/s | 748.17 ± 0.55 kg/m3 | 1207 ± 0.8 m/s
CCCCN(CCCC)CCCC [tributylamine] | 781.336 ± 0.5 kg/m3 | 1285 ± 0.83 m/s | 777.632 ± 0.51 kg/m3 | 1266.4 ± 0.82 m/s | 773.913 ± 0.51 kg/m3 | 1247.6 ± 0.81 m/s | 770.183 ± 0.52 kg/m3 | 1229 ± 0.81 m/s | 766.44 ± 0.53 kg/m3 | 1210.4 ± 0.8 m/s
CCCOCC(C)OCC(C)O (stereo not given) [1-(1-methyl-2-propoxyethoxy)-2-propanol] | 924.348 ± 0.29 kg/m3 | 1306.3 ± 0.83 m/s | 919.954 ± 0.29 kg/m3 | 1287.9 ± 0.83 m/s | 915.522 ± 0.3 kg/m3 | 1269.9 ± 0.82 m/s | 911.078 ± 0.31 kg/m3 | 1251.7 ± 0.82 m/s | 906.642 ± 0.31 kg/m3 | 1234.1 ± 0.81 m/s
CCCCN [1-butanamine] | 742.865 ± 0.56 kg/m3 | 1296.1 ± 0.83 m/s | 738.096 ± 0.57 kg/m3 | 1273.6 ± 0.82 m/s | 733.301 ± 0.58 kg/m3 | 1250 ± 0.82 m/s | 728.477 ± 0.58 kg/m3 | 1228.9 ± 0.81 m/s | 723.625 ± 0.59 kg/m3 | 1205.7 ± 0.8 m/s
